From patent US9540355B2, “Irciniastatin analogues” (priority 2013, dated 2017)

Legend:
HS 578T = settings: breast cancer HS 578T; cited from earlier work
UACC-62 = settings: melanoma UACC-62; read-out: LC50 (the source's name); cited from earlier work
HT29 = settings: colon cancer HT29; read-out: LC50 (the source's name); cited from earlier work
UACC-257 = settings: melanoma UACC-257; read-out: LC50 (the source's name); cited from earlier work
DU-145 = settings: prostate DU-145; cited from earlier work
[1] = tested on: IMR-90 human fibroblast cells; test: IMR-90 cytotoxicity assay; format: cell-based; settings: IMR-90, 72 h, quiescent non-dividing cells, 0.1% FBS, 3 days incubation, read-out: IC50 (nM) Quiescent IMP-90
Source text: IMR-90 Cytotoxicity Assay.
To evaluate the effect of compounds of the invention on non-proliferating normal cells, an in vitro cytotoxicity assay developed to distinguish between true antiproliferative activity and general cellular cytotoxicity unrelated to proliferation was used. Rudolph-Owen L A, Salvato K, Cheng C, Wu J, Towle M J and Littlefield B A: A 96-well plate cell-based assay to quantify undesired cytotoxic effects against quiescent non-dividing cells. Proc Amer Assoc Cancer Res 45: 264-265, 2004. In brief, IMR-90 human fibroblast cells, obtained from ATCC, were grown for 4 days to confluency in MEM containing 10% FBS and supplemented with L-glutamine, penicillin/streptomycin. After washing, the medium was replaced with complete MEM containing 0.1% FBS and the cells were cultured for 3 additional days to achieve complete quiescence. A compound of the invention or vehicle control was then added in the continued presence of 0.1% FBS, followed by incubation for 3 days at 37° C. Cell viability was assessed by the measurement of cellular ATPlevels using CellTiter-Glo reagent (Promega).

KM20L2 = settings: colon KM20L2; cited from earlier work
SF-268 = settings: CNS SF-268; cited from earlier work
SR = settings: leukemia SR; read-out: LC50 (the source's name); cited from earlier work
NCI/ADR-RES = settings: breast cancer NCI/ADR-RES; read-out: LC50 (the source's name); cited from earlier work
SK-MEL-5 = settings: melanoma SK-MEL-5; read-out: LC50 (the source's name); cited from earlier work
K-562 = settings: leukemia K-562; read-out: LC50 (the source's name); cited from earlier work
SW-620 = settings: colon cancer SW-620; read-out: LC50 (the source's name); cited from earlier work
[2] = tested on: P388 murine lymphocytic leukemia cell line; settings: cited from earlier work
HCC-2998 = settings: colon cancer HCC-2998; read-out: LC50 (the source's name); cited from earlier work
RPMI-8226 = settings: leukemia RPMI-8226; read-out: LC50 (the source's name); cited from earlier work
MCF-7 = settings: breast MCF-7; cited from earlier work
BXPC-3 = settings: pancreas BXPC-3; cited from earlier work
HCT-116 [3] = settings: colon cancer HCT-116; read-out: LC50 (the source's name); cited from earlier work
MCF7 = settings: breast cancer MCF7; read-out: LC50 (the source's name); cited from earlier work
MALME-3M = settings: melanoma MALME-3M; read-out: LC50 (the source's name); cited from earlier work
[4] = tested on: several solid tumor cell lines; settings: cited from earlier work
HCT-116 [5] = test: Cell growth inhibition assay (CellTiter-Glo); format: cell-based, human
Description: (§1) Cell Culture and Cell Growth Inhibition Assay.
(§2) The chosen cell lines are all human cancer cell lines except for the 4T1 murine breast cancer line, representing a wide variety of cancer types including breast (MDA-MB-453), kidney (A498), lung (H1975), pancreatic (PANC-1) and endometrial cancer (AN3CA, HEC-1A, and RL95-2), glioblastoma (U251 and U-87MG), melanoma (A2058 and LOXIMVI) and uterine sarcoma (MES-SA). All the cancer cell lines can be obtained from the American Type Culture Collection (ATCC, Manassas, Va., USA) with the exception of U251 which can be provided by the National Cancer Institute Tumor Repository (Frederick, Md.) and is cultured in the standard tissue culture media appropriate for each cell line. All the culture media are supplemented with 10% fetal bovine serum (FBS), 100 I.U./mL penicillin and 100 μg/mL streptomycin. For the cell growth inhibition assay, the cells are seeded in 96-well tissue culture plates at 500-3000 cells/well (seeding density empirically adjusted for each cell line based on growth rate optimization). The cells are allowed to attach for a minimum of 5 h prior to compound administration. The cells are incubated for a period of 4 days after compound addition. Following the incubation period, CellTiter-Glo reagent (Promega, Madison, Wis., USA) is added to all the wells to assess cell proliferation/viability. Luminescence is measured using an Envision microplate reader (Perkin Elmer, Waltham, Mass., USA). The IC50 values were calculated as the concentration which inhibited cell growth to 50% of DMSO control treated cell populations.

H522-T1 = test: Cell growth inhibition assay (CellTiter-Glo); format: cell-based, human
Description: as §1, §2

A2058 = test: Cell growth inhibition assay (CellTiter-Glo); format: cell-based, human
Description: as §1, §2

[6] = Homo sapiens, 96 h, 4 days incubation
[7] = ratio IC50[IMR-90]:IC50[tumor cell line]

## C=C(C)C[C@H](OC)[C@H](O)C(=O)N[C@@H](OC)[C@@H]1C[C@@H](O)C(C)(C)[C@@H](C[C@H](O)[C@@H](C)[C@H]2Cc3c(C)c(O)cc(O)c3C(=O)O2)O1 [Irciniastatin A, (+)-Irciniastatin A]
HS 578T
  LC50: > 25000 nM
UACC-62
  CC50: < 2.5 nM
HT29
  CC50: > 25000 nM
UACC-257
  CC50: > 25000 nM
DU-145
  Growth Inhibition of Cancer Cell Lines (GI50): 2.4 ng/mL
[1]
  IC50: 27 nM
KM20L2
  Growth Inhibition of Cancer Cell Lines (GI50): 2.7 ng/mL
SF-268
  Growth Inhibition of Cancer Cell Lines (GI50): 3.4 ng/mL
SR
  CC50: > 25000 nM
NCI/ADR-RES
  CC50: 19000 nM
SK-MEL-5
  CC50: < 2.5 nM
K-562
  CC50: > 25000 nM
SW-620
  CC50: > 25000 nM
[2]
  Growth Inhibition of Cancer Cell Lines (GI50): 4.13 ng/mL
HCC-2998
  CC50: 360 nM
RPMI-8226
  CC50: > 25000 nM
MCF-7
  Growth Inhibition of Cancer Cell Lines (GI50): 3.2 ng/mL
BXPC-3
  Growth Inhibition of Cancer Cell Lines (GI50): 3.8 ng/mL
HCT-116 [3]
  CC50: < 2.5 nM
MCF7
  CC50: > 25000 nM
MALME-3M
  CC50: < 2.5 nM
[4]; compounds considered active score 20 or higher
  hollow fiber assay overall score: 34
[4]; intraperitoneal fibers
  hollow fiber assay score against intraperitoneal fibers: 28
[4]; subcutaneous fibers
  hollow fiber assay score against subcutaneous fibers: 6
HCT-116 [5]; [6]
  IC50: 4 nM
HCT-116 [5]; [7]
  Selectivity vs. IMR-90, HCT-116: 7
H522-T1; [6]
  IC50: 1 nM
H522-T1; [7]
  Selectivity vs. IMR-90, H522-T1: 27
A2058; [6]
  IC50: 0.4 nM
A2058; [7]
  Selectivity vs. IMR-90, A2058: 68
